Reference: patent publication US5891742A, “Affinity selection of ligands by mass spectroscopy” (Chiron Corporation, priority 1995, dated 1999)

Tests used:
[1] = target: uPAR (Homo sapiens, UniProt Q03405); settings: individual N-substituted glycine peptoids
Experimental: Human urokinase plasminogen activator receptor (UPAR) was expressed in a soluble, truncated form as described by Rosenberg et al., W094/28145, incorporated herein by reference. […] The ligand uPA1-48 was prepared as described in Rosenberg, supra.

[2] = target: sUPAR (Homo sapiens, UniProt Q03405); settings: mixture 1 μM per compound, sUPAR 1 μM
sUPAR, sequence (Q03405 23-305): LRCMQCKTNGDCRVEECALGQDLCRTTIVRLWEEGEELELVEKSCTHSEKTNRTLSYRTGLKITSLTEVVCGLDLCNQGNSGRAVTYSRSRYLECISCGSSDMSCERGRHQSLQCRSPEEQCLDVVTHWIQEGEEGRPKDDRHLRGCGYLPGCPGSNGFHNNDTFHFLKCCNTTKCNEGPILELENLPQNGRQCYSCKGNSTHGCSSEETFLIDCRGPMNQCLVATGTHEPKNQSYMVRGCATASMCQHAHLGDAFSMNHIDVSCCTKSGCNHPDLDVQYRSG
Experimental: The mixture (1 μM per compound) was contacted with sUPAR (1 μM) in the presence and absence of uPA1-48(2 μM), incubated for 30 minutes, and applied to a SEC HPLC column (Pharmacia HSIO/IO). The compound-target complex eluting in the excluded volume of the column was collected and analyzed on an ES MS (PE-Sciex).

uPAR, sequence (Q03405 23-305): as above

Row | Substance | activity (affinity for uPAR) [1] | selection as compound-target complex, detected by ES MS ([2]; absence of uPA1-48, 30 minutes, SEC HPLC excluded volume) | specificity of selection, by competition with ligand uPA1-48 ([2]; presence of uPA1-48 (2 μM))
1 | 1,4-benzodioxane | insignificant activity |  | 
2 | diphenyl |  | selected | specificity was confirmed by competition
